Experimental data published in US6153653A, “Choline compositions and uses thereof” (Protarga, Inc., priority 1997, dated 2000).
Values joined by “and” are separate entries in the source; they are usually repeats but may differ in a detail not shown here. Identical values can stand only once. “Also recorded” adds a separate entry of the source.

What was measured:
Stability = assay type: physicochemical; settings: for Stability on exposure in the air (in words): exposed in the air
Solubility = assay type: physicochemical
[1] = in vivo; cited from earlier work
[2] = system: animal models, clinical trials, models of aging; settings: cited from earlier work
[3] = cited from earlier work
[4] = system: locomotor activity of mice; assay: Locomotor activity (locomotor depression) study, Digiscan chambers; assay type: in vivo, male Swiss-Webster mice (Hsd:ND4)
Description: A dose-response study of DHA-choline-induced locomotor depression was conducted using 40 Digiscan locomotor activity testing chambers (40.5×40.5×30.5 cm) housed in sets of two, within sound attenuating chambers. A panel of infrared beams (16 beams) and corresponding photo detectors were located in the horizontal direction along the sides of each activity chamber. A 7.5W incandescent light above each chamber provided dim illumination. Fans provided an 80-dB ambient noise level within the chamber. Separate groups of 8 non-habituated male Swiss-Webster mice (Hsd:ND4, aged 2-3 mo.) were injected via the intraperitoneal route (i.p.) with either vehicle or DHA-choline (0.5, 2.5, 5, 10, 20 or 40 mg/kg), 20 minutes prior to locomotor activity testing. In all studies, the total distance (cm traversed in the horizontal plane) was measured for 2 hours within 10 min periods.
The period 0-30 min was selected for analysis of dose-response data because this is the time period in which DHA-choline produced maximal effects. The mean average distance per 10 min for this 30 min period were fit to a linear function of log, dose of the descending portion of the dose-effect curve (0.5 to 40 mg/kg dose range).

[5] = system: MCA occlusions of rat brain; assay: Middle cerebral artery occlusion-reperfusion stroke model, infarct by triphenyltetrazolium chloride staining; assay type: in vivo; settings: for Infarct volume (% of control non-occluded side of brain), Average: vehicle average 35.5
Description: Two sets of experiments were carried out. In the first set, rats were administered with 50 mg/kg of DHA-choline i.p. at 30 minutes prior to occlusion of the middle cerebral artery of the left side of the brain using a standard highly reproducible animal model of stroke (Karpiak et al., J. Neurosci. Res. 30:512-520, 1991). Occlusion of the middle cerebral artery inhibits blood flow to a major portion of the left cortical and subcortical regions of the brain. After a two hour period, the occluded blood vessel was opened to allow reperfusion of the brain, and anesthesia was terminated. Each animal received additional doses of 50 mg/kg of DHA-choline 24 and 48 hours later.
The animals were sacrificed, perfused with formalin fixative, brains were sliced into seven 2 mm thick coronal sections, and stained with triphenyltetrazolium chloride (Watson et al., J. Neurosci. Methods 53:203-208, 1994). In this test, tissue that contains intact mitochondria stains red, whereas dead tissue with damaged mitochondria picks up no stain and remains white. Each unstained area on the left side of a section was measured and compared to the total area of the control non-occluded right side of the same section of the brain. The area of damaged (white) brain tissue cells was calculated as a percent of the intact right side of a section. […] (n=5 per group.)
In the second set of experiments (n=5), the identical occlusion-reperfusionrat model was used; only the time of administration of the drug was changed. DHA-choline was injected i.p. at a dose of 50 mg/kg at one hour after the beginning of the reperfusion, i.e., at three hours after the initiation of the stroke event. Controls (n=5) received an injection of the vehicle instead of the drug according to the same protocol.

[6] = relative to tPA; cited from earlier work
[7] = 50 mg/kg i.p. at 30 min prior to occlusion

CC/C=C\C/C=C\C/C=C\C/C=C\C/C=C\C/C=C\CCC(=O)OCCN(C)C [2-dimethylaminoethyl docosahexaenoate]
Stability on exposure in the air (in words) (Stability): turns dark when exposed in the air for several days
Solubility (solvents, in words) (Solubility): soluble in EtOAc, Et2 O, CH2 Cl2, CHCl3, EtOH insoluble in H2 O

C[N+](C)(C)CCOP(=O)(O)OP(=O)([O-])OC[C@H]1O[C@@H](n2ccc(N)nc2=O)[C@H](O)[C@@H]1O [CDP-choline, Cytidine 5'-diphosphocholine]
release on administration (in words) [1]: choline and cytidine are released into the systemic circulation
neuroprotective effect; memory and learning deficits (in words) [2]: neuroprotective effect in animal models and in clinical trials; also recorded: improves memory and learning deficits in models of aging

CC/C=C\C/C=C\C/C=C\C/C=C\C/C=C\C/C=C\CCC(=O)O [DHA, cis-docosahexaenoic acid]
crossing the blood-brain barrier (in words) [1]: unusually effective in crossing the blood-brain barrier
Stability in the presence of oxygen (in words) [3]: can be unstable in the presence of oxygen

CC/C=C\C/C=C\C/C=C\C/C=C\C/C=C\C/C=C\CCC(=O)OCC[N+](C)(C)C [DHA-choline, docosahexaenoyl choline iodide]
one-way analysis of variance on total distance/10 min, F(6,49) ([4]; 0-30 min, overall effect): 10.5
time period in which maximal effects were produced ([4]; i.p., after 20 min pretreatment): 0 to 30 min
decrease in number of dead cells [5, 7]: about 50%
Infarct volume (% of control non-occluded side of brain), individual animals ([5]; 50 mg/kg i.p. at 30 min prior to occlusion, Group No. 1 to 4): 22 % of control non-occluded side of brain and 19 % of control non-occluded side of brain and 16 % of control non-occluded side of brain and 20 % of control non-occluded side of brain
Infarct volume (% of control non-occluded side of brain), Average [5, 7]: 19.3 % of control non-occluded side of brain
Infarct volume (% of control non-occluded side of brain), individual animals ([5]; 50 mg/kg i.p. at 3 hours after occlusion, Group No. 1 to 5): 15 % of control non-occluded side of brain and 17 % of control non-occluded side of brain and 25 % of control non-occluded side of brain and 21 % of control non-occluded side of brain and 20 % of control non-occluded side of brain
Infarct volume (% of control non-occluded side of brain), Average ([5]; 50 mg/kg i.p. at 3 hours after occlusion): 19.6 % of control non-occluded side of brain
decrease in infarct volume ([5]; 50 mg/kg i.p. at three hours after initiation of stroke (one hour after beginning of reperfusion)): approximately 50%
Stability on exposure in the air (in words) (Stability): exposed in the air for 5 days showed that the compound had not decomposed; also recorded: if it is exposed in the air for too long will decompose
Stability on neutral alumina (in words) (Stability; purification on neutral alumina, 1H NMR): will result in other peaks on ^1 H NMR
Solubility (solvents, in words) (Solubility): soluble in CH2 Cl2, CHCl3, EtOAc, EtOH insoluble in hexanes, Et2 O

C[N+](C)(C)CCO [choline]
crossing the blood-brain barrier (in words) [1]: cross the blood-brain barrier

Nc1ccn([C@@H]2O[C@H](CO)[C@@H](O)[C@H]2O)c(=O)n1 [cytidine]
crossing the blood-brain barrier (in words) [1]: cross the blood-brain barrier

tPA conjugated to polyethylene glycol: conjugation of tPA to polyethylene glycol (EP-A304,311)
clearance rate (in words) [6]: reduce the clearance rate of tPA
